Consider two molecules from US6224887A, “Antifungal nail lacquer and method using same” (MacroChem Corporation, priority 1999, dated 2001).

For the series the following is noted: lacquer, 1200 h. As for the experimental part:
Using the above formulation with 5% Econazole and 53% ethanol, stability testing was performed. […] In addition, gas chromatography quantitative analysis was conducted on samples stored in glass containers for 50 days at 40° C./75%RH at varying pH (5.2, 6.83, 12.2; by addition of acid or base, as necessary).
The analytical test procedure involves a simple direct dilution and injection method for determining levels of both antifungal agent and enhancer compound in the same chromatogram, i.e., without separation steps. […] Specifically, a Hewlett-Packard Model 5890 Chromatograph with a Hewlett-Packard 50+(crosslinked 50% phenylmethylsiloxane), 30 m, 0.32 mm ID, 0.50μ film (Cat. #19091L) column and Model 7673 Autoinjector, operating in split mode (split flow 0.7 mL/min; split ratio 0.652:1), using methanol as wash solvent and hexanophenone as internal standard, was used for the analysis. In Table 2 the results are reported for the average of six injections.

Like-named read-outs stand apart in the source and are kept apart here.

Regarding `Clc1ccc(COC(Cn2ccnc2)c2ccc(Cl)cc2Cl)cc1` (stereo not drawn) [Econazole], the “Econazole Assay” value is 94.29% (pH 5.2), 96.67% (pH 6.83) and 97.60% (pH 12.2).
Take `CCCCCCCCCC1OCCO1` [SEPA, 2-n-nonyl-1,3-dioxolane]: the SEPA assay (pH 5.2) is reported as 93.85%, the SEPA assay (pH 6.83) is listed as 98.41% and the SEPA assay (pH 12.2) is 99.36%.
